Values after ≈ are worked out from the molar mass of the structure shown. Read-outs that look alike come from different tables or passages of the source.
Experiments:
[1] = High-throughput equilibrium solubility at pH 6.8; format: physicochemical; conditions: pH 6.8, aqueous buffer, thermodynamic from solid; read-out: HT-Eq Sol/pH 6.8
Source text: The physicochemical properties of relevance for the absorption of the compound, such as the solubility and the membrane permeability, especially at a pH close to neutral pH can be measured using the procedure as described by L. ZHOU et al. in JOURNAL OF PHARMACEUTICAL SCIENCES, VOL. 96, NO. 11, p. 3052-3071 (2007) for the solubility at pH 6.8 and the procedure as described by F. Wohnsland and B. Faller in Journal of Medicinal Chemistry Vol 44, p. 923-930 (2001) for the Parallel Artificial Membrane Permeability Assay (PAMPA) at pH 6.8.

PI3K alfa = molecular target: T1, PI3K alfa (Homo sapiens, UniProt P42336); assay: PI3K alpha kinase assay (Kinase-Glo luminescence); format: biochemical
T1 construct: His tag (C); made in house; host or cells: baculovirus BV1075; Tn5 (Trichoplusia ni) or TiniPro insect cells
T1 sequence (P42336 with tags, fused parts or gaps limits assumed): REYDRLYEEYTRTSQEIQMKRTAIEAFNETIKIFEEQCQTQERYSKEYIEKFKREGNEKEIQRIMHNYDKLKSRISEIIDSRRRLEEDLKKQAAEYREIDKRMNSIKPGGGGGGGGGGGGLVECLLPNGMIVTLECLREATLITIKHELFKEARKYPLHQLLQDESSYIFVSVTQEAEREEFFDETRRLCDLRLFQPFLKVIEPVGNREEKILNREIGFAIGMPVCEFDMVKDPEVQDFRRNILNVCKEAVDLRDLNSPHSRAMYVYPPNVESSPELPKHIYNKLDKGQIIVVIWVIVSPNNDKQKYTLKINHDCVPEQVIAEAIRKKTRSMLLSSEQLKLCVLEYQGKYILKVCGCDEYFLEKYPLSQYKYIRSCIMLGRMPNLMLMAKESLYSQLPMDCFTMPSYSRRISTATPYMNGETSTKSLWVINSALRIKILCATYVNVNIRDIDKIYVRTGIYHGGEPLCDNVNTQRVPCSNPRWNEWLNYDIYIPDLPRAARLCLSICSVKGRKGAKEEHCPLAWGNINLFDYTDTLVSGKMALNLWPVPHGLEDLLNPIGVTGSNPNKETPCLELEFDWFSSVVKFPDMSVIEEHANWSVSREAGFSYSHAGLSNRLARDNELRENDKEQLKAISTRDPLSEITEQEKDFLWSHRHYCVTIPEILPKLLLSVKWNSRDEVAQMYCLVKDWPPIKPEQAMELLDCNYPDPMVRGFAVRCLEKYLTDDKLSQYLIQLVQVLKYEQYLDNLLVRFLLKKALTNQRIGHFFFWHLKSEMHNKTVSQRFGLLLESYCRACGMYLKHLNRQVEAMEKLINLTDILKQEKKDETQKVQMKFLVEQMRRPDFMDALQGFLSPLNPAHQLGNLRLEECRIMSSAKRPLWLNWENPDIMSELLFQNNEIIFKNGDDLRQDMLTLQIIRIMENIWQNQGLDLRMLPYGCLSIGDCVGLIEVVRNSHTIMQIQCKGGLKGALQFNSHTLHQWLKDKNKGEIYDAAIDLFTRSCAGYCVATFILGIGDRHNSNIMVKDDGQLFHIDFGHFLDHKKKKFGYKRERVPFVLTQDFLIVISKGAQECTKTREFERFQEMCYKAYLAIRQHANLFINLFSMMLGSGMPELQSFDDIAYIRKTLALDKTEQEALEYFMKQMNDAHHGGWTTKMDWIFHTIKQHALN
Experimental: (§1) In a more preferred assay, the kinase reaction is performed in a final volume of 10 μL per well of a low volume non binding CORNING, 384 well black plate (Cat. No. #3676). The final concentrations of ATP and phosphatidyl inositol (PI) in the assay are 1 μM and 10 μg/mL respectively. The reaction is started by the addition of ATP.
(§2) The components of the assay are added per well as follows:
(§3) 50 nL test compounds in 90% DMSO per well, in columns 1-20, 8 concentrations (⅓ and 1/3.33 serial dilution step) in single. • Low control: […] of 90% DMSO in half the wells of columns 23-24 (0.45% in final). • High control: 50 nL of reference compound (e.g. compound of Example 7 in WO 2006/122806) in the other half of columns 23-24 (2.5 μM in final). • Standard: 50 nL of reference compound as just mentioned diluted as the test compounds in columns 21-22 • 20 mL ‘buffer’ are prepared per assay: • 200 μL of 1M TRIS HCl pH7.5 (10 mM in final) • 60 μL of 1M MgCl2 (3 mM in final) • 500 μL of 2M NaCl (50 mM in final) • 100 μL of 10% CHAPS (0.05% in final) • 200 μL of 100 mM DTT (1 mM in final) • 18.94 mL of nanopure water • 10 mL ‘PI’ are prepared per assay: • 200 μL of 1 mg/ml L-alpha-Phosphatidylinositol (Liver Bovine, Avanti Polar Lipids Cat. No. 840042C MW=909.12) prepared in 3% OctylGlucoside (10 μg/ml in final) • 9.8 mL of ‘buffer’ • 10 mL ‘ATP’ are prepared per assay: • 6.7 μL of 3 mM stock of ATP giving a final concentration of 1 μM per well • 10 mL of ‘buffer’ • 2.5 mL of each PI3K construct are prepared per assay in ‘PI’ with the following final concentration: • 10 nM PI3K alfa EMV B1075 • 25 nM beta EMV BV949 • 10 nM delta EMV BV1060 • 150 nM gamma EMV BV950 • 5 μL of ‘PI/PI3K’ are added per well. • 5 μl ‘ATP’ are added per well to start the reaction. • The plates are then incubated at room temperature for 60 minutes (alfa, beta, delta) or 120 minutes (gamma). • The reaction is terminated by the addition of 10 μL Kinase-Glo (Promega Cat. No. #6714). • The assay plates are read after 10 minutes in Synergy 2 reader (BioTek, Vermont USA) with an integration time of 100 milliseconds and sensitivity set to 191. • Output: The High control is around 60′000 counts and the Low control is 30′000 or lower • This luminescence assay gives a useful Z′ ratio between 0.4 and 0.7
Two different constructs, BV 1052 and BV 1075, are used to generate the PI3 Kinase α proteins for compound screening.
PI3K alpha is purified in three chromatographic steps: immobilized metal affinity chromatography on a Ni Sepharose resin (GE Healthcare, belonging to General Electric Company, Fairfield, Conn., USA), gel filtration utilizing a Superdex 200 26/60 column (GE Healthcare), and finally a cation exchange step on a SP-XL column (GE Healthcare). All buffers are chilled to 4° C. and lysis is performed chilled on ice. Column fractionation is performed rapidly at room temperature.
IC50 is determined by a four parameter curve fitting routine that comes along with “excel fit”. A 4 Parameter logistic equation is used to calculate IC50 values (IDBS XLfit) of the percentage inhibition of each compound at 8 concentrations (usually 10, 3.0, 1.0, 0.3, 0.1, 0.030, 0.010 and 0.003 μM). Alternatively, IC50 values are calculated using idbsXLfit model 204, which is a 4 parameter logistic model.

PI3K delta = molecular target: T2, PI3K delta (Homo sapiens, UniProt O00329); assay: PI3K delta kinase assay (Kinase-Glo luminescence); format: biochemical
T2 construct: for the full-length p110-d subunit are generated and fused by overlapping PCR; His tag (C); made in house; host or cells: baculovirus BV1060; Tn5 (Trichoplusia ni) or TiniPro insect cells
T2 sequence (O00329 with tags, fused parts or gaps limits assumed): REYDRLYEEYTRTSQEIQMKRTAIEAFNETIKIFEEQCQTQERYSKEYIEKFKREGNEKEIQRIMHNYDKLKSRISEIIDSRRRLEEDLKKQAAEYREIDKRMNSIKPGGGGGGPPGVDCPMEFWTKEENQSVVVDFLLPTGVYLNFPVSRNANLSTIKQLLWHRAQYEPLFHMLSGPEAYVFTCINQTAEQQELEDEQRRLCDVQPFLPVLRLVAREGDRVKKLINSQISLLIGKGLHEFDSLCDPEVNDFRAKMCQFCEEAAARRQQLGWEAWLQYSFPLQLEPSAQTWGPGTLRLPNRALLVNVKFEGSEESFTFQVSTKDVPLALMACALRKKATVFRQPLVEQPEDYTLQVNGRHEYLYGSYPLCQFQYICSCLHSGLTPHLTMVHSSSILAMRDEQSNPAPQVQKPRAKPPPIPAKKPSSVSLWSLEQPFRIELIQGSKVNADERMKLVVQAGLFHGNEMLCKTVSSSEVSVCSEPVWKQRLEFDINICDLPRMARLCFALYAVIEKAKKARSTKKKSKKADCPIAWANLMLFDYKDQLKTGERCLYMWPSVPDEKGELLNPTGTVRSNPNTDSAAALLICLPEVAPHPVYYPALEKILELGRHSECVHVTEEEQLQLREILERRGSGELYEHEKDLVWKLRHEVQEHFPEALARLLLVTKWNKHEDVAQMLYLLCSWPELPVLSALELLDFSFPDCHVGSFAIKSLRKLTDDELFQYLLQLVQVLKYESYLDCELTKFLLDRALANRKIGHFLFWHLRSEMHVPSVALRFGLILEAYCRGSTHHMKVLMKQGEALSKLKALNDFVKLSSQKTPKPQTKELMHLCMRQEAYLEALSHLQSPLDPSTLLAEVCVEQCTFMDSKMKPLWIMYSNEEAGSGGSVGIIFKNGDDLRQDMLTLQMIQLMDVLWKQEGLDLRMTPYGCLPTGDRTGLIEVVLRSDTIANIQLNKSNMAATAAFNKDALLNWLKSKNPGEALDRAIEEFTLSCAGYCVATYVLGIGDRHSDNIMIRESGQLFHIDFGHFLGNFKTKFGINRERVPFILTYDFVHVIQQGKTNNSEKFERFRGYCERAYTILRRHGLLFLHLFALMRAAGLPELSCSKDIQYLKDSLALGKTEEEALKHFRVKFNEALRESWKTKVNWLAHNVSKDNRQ
Experimental: as §1, §2, §3
PI3Kδ BV-1060 p85(iSH2)-Gly Linker-p110d(Full-Length)-C-Term His Tag
PI3K delta is purified in three chromatographic steps: immobilized metal affinity chromatography on a Ni Sepharose resin (GE Healthcare), gel filtration utilizing a Superdex 200 26/60 column (GE Healthcare), and finally a anion exchange step on a Q-HP column (GE Healthcare). All buffers are chilled to 4° C. and lysis is performed chilled on ice. Column fractionation is performed rapidly at room temperature. Typically frozen insect cells are lysed in a hypertonic lysis buffer and applied to a prepared IMAC column. The resin is washed with 3-5 column volumes of lysis buffer, followed by 3-5 column volumes wash buffer containing 45 mM imidazole, and the target protein is then eluted with a buffer containing 250 mM imidazole. Fractions are analyzed by Coomassie stained SDS-PAGE gels, and fractions containing the target protein are pooled and applied to a prepared GFC column. Fractions from the GFC column are analyzed by Coomassie stained SDS-PAGE gels, and fractions containing the target protein are pooled. The pool from the GFC column is diluted into a low salt buffer and applied to a prepared Q-HP column. The column is washed with low salt buffer until a stable A280 baseline absorbance is achieved, and eluted using a 20 column volume gradient from 0 mM NaCl to 500 mM NaCl. Again, fractions from the Q-HP column are analyzed by Coomassie stained SDS-PAGE gels, and fractions containing the target protein are pooled. The final pool is dialyzed into a storage buffer containing 50% glycerol and stored at −20° C. The final pool is assayed for activity in the phosphoinostitol kinase assay. […]

Row | Structure (SMILES) | solubility thermodynamic [1] [µg/mL] | IC50 (PI3K alfa; read-out: PI3Kalfa/IC50) [nM] | IC50 (PI3K delta; read-out: PI3Kdelta/IC50) [nM] | IC50 (PI3K alfa; read-out: EPK_PI3Kalfa/IC50) [nM] | IC50 (PI3K delta; read-out: EPK_PI3Kdelta/IC50) [nM]
1 | COc1ncccc1-n1c(=O)n(C)c2cnc3ccc(-c4ccc(C(N)=O)cc4)cc3c21 [Example 1.6, 4-[1-(2-Methoxy-pyridin-3-yl)-3-methyl-2-oxo-2,3-dihydro-1H-imidazo[4,5-c]quinolin-8-yl]-benzamide] | 2 (≈ 4.7 µM) | 17 | 163 | – | –
2 | CCOc1cc(-c2ccc3ncc4c(c3c2)n(-c2cccnc2C)c(=O)n4C)cnc1COC [Example 2.28, 8-(5-Ethoxy-6-methoxymethyl-pyridin-3-yl)-3-methyl-1-(2-methyl-pyridin-3-yl)-1,3-dihydro-imidazo[4,5-c]quinolin-2-one] | 51 (≈ 112 µM) | – | – | 267 | 54
3 | Cc1ncccc1-n1c(=O)n(C)c2cnc3ccc(-c4cnc(N)c(C(F)(F)F)c4)cc3c21 [Example 2.11, 8-(6-Amino-5-trifluoromethyl-pyridin-3-yl)-3-methyl-1-(2-methyl-pyridin-3-yl)-1,3-dihydro-imidazo[4,5-c]quinolin-2-one] | 13 (≈ 28.9 µM) | 7 | 12 | – | –
4 | CNc1ncc(-c2ccc3ncc4c(c3c2)n(-c2ccc(N3CCC(O)C3)nc2C)c(=O)n4C)cn1 (centres unmarked) [Example 27.2, 1-[6-(3-Hydroxy-pyrrolidin-1-yl)-2-methyl-pyridin-3-yl]-3-methyl-8-(2-methylamino-pyrimidin-5-yl)-1,3-dihydro-imidazo[4,5-c]quinolin-2-one] | 67 (≈ 139 µM) | – | – | 32 | 55
5 | Cc1ncccc1-n1c(=O)n(C)c2cnc3ccc(-c4cnc(N(C)C)nc4)cc3c21 [Example 2.15, 8-(2-Dimethylamino-pyrimidin-5-yl)-3-methyl-1-(2-methyl-pyridin-3-yl)-1,3-dihydro-imidazo[4,5-c]quinolin-2-one] | 11 (≈ 26.7 µM) | 35 | 32 | – | –
6 | Cc1cccnc1-n1c(=O)n(C)c2cnc3ccc(-c4ccc(CO)nc4)cc3c21 [Example 3.9, 8-(6-Hydroxymethyl-pyridin-3-yl)-3-methyl-1-(3-methyl-pyridin-2-yl)-1,3-dihydro-imidazo[4,5-c]quinolin-2-one] | > 397 | 383 | 583 | – | –
7 | CCNc1cc(-c2ccc3ncc4c(c3c2)n(-c2cccnc2C)c(=O)n4C)cnc1CO [Example 2.31, 8-(5-Ethylamino-6-hydroxymethyl-pyridin-3-yl)-3-methyl-1-(2-methyl-pyridin-3-yl)-1,3-dihydro-imidazo[4,5-c]quinolin-2-one] | 27 (≈ 61.3 µM) | – | – | 14 | 25
8 | CCNc1cc(-c2ccc3ncc4c(c3c2)n(-c2ccc(N3CC(O)C3)nc2C)c(=O)n4C)cnc1CO [Example 29.2, 8-(5-Ethylamino-6-hydroxymethyl-pyridin-3-yl)-1-[6-(3-hydroxy-azetidin-1-yl)-2-methyl-pyridin-3-yl]-3-methyl-1,3-dihydro-imidazo[4,5-c]quinolin-2-one] | 57 (≈ 111 µM) | – | – | 9 | 19
9 | CCOc1cc(-c2ccc3ncc4c(c3c2)n(-c2ccc(N3CCC3)nc2C)c(=O)n4C)cnc1COC [Example 23.5, 1-(6-Azetidin-1-yl-2-methyl-pyridin-3-yl)-8-(5-ethoxy-6-methoxymethyl-pyridin-3-yl)-3-methyl-1,3-dihydro-imidazo[4,5-c]quinolin-2-one] | 69 (≈ 135 µM) | – | – | 21 | 25
10 | CNc1ncc(-c2ccc3ncc4c(c3c2)n(-c2ncccc2C)c(=O)n4C)cn1 [Example 3.4, 3-Methyl-8-(2-methylamino-pyrimidin-5-yl)-1-(3-methyl-pyridin-2-yl)-1,3-dihydro-imidazo[4,5-c]quinolin-2-one] | 11 (≈ 27.7 µM) | 80 | 236 | – | –
11 | CCNc1cc(-c2ccc3ncc4c(c3c2)n(-c2ccc(N3CCC3)nc2C)c(=O)n4C)cnc1CO [Example 23.8, 1-(6-Azetidin-1-yl-2-methyl-pyridin-3-yl)-8-(5-ethylamino-6-hydroxymethyl-pyridin-3-yl)-3-methyl-1,3-dihydro-imidazo[4,5-c]quinolin-2-one] | 57 (≈ 115 µM) | – | – | 14 | 17
12 | CNC(=O)c1ccc(-c2ccc3ncc4c(c3c2)n(-c2ncccc2C)c(=O)n4C)cc1 [Example 3.5, N-Methyl-4-[3-methyl-1-(3-methyl-pyridin-2-yl)-2-oxo-2,3-dihydro-1H-imidazo[4,5-c]quinolin-8-yl]-benzamide] | 10 (≈ 23.6 µM) | 53 | – | – | –
13 | CCOc1ccc(-c2ccc3ncc4c(c3c2)n(-c2ncccc2C)c(=O)n4C)cn1 [Example 3.6, 8-(6-Ethoxy-pyridin-3-yl)-3-methyl-1-(3-methyl-pyridin-2-yl)-1,3-dihydro-imidazo[4,5-c]quinolin-2-one] | 20 (≈ 48.6 µM) | 206 | – | – | –
14 | Cc1ncccc1-n1c(=O)n(C)c2cnc3ccc(-c4ccc(OCCCN(C)C)nc4)cc3c21 [Example 2.10, 8-[6-(3-Dimethylamino-propoxy)-pyridin-3-yl]-3-methyl-1-(2-methyl-pyridin-3-yl)-1,3-dihydro-imidazo[4,5-c]quinolin-2-one] | > 469 | – | 855 | – | –
15 | Cc1cccnc1-n1c(=O)n(C)c2cnc3ccc(-c4ccc(N(C)C)nc4)cc3c21 [Example 3.11, 8-(6-Dimethylamino-pyridin-3-yl)-3-methyl-1-(3-methyl-pyridin-2-yl)-1,3-dihydro-imidazo[4,5-c]quinolin-2-one] | 39 (≈ 95 µM) | 321 | – | – | –
